# Measurements as given in patent US10258639B2, “Methods for treating insulin resistance and for sensitizing patients to GLP1 agonist therapy” (Research Development Foundation, priority 2014, dated 2019).
# Tested on: INS1 cells
# Test: RNAseq of INS1 cells grown in chronic high glucose compared to controls and stimulated with FSK (Table 2)
# Assay type: cell-based, rat
# Conditions: Low glucose
# Description: INS-1 insulinoma cells were cultured in RPMI (corning cellgro) containing 10% fetal bovine serum (Gemini Bio Products), 100 μg/mL penicillin-streptomycin and 1 mM sodium pyruvate (corning cellgro). MIN6 cells were grown in DMEM (corning cellgro) with 10% FBS, 100 μg/mL penicillin-streptomycin and 70 uM beta-mercaptoethanol. For chronic glucose experiments, cells were maintained under low (2.8 mM) or high (20 mM) glucose for 3 days. Exendin-4 (10 nM), Forskolin (10 μM), KCl (40 mM), DMOG (1 mM) and rapamycin (50 nM) were added to cells as indicated. Cellular cAMP levels were measured using an ELISA kit (Cayman Chemical Company) according to manufacturer's instructions. Total RNAs from cells or primary islets were extracted using Trizol and cDNA was generated using the Transcriptor First Strand cDNA Synthesis kit (Roche Applied Science). cDNAs were quantified on a lightcycler 480 instrument (Roche Applied Science). Gene expression data were presented relative to the expression of housekeeping gene L32 (rat samples) and 18S (mouse and human islets). RNA-Seq libraries were prepared using the mRNA isolation protocol and the NEBNext-Ultra kits from New England Biolabs following the manufacturer's protocols. Libraries were quantitated by Qubit (Invitrogen), and run on a MiSeq instrument with paired-end 75 bp reads using v3 chemistry (Illumina) Data were analyzed by tophat2 and cuffdiff against the mouse mm10 genome build. The GEO accession number for RNAseq studies reported in the paper is GSE60158.
structure (smiles),measurement,setting,value
"C=C[C@@]1(C)CC(=O)[C@]2(O)[C@@]3(C)[C@@H](O)CCC(C)(C)[C@@H]3[C@H](O)[C@H](OC(C)=O)[C@@]2(C)O1 [FSK, Forskolin]",Agt RNAseq value,FSK,5.2
same,Ahi1 RNAseq value,FSK,32.6
same,Bhlha15 RNAseq value,FSK,63.9
same,Btg3 RNAseq value,FSK,145.9
same,Bysl RNAseq value,FSK,56.1
same,Canx RNAseq value,FSK,241.6
same,Ccni RNAseq value,FSK,242.1
same,Chd1 RNAseq value,FSK,20.8
same,Chrne RNAseq value,FSK,0.2
same,Ctf1 RNAseq value,FSK,0.2
same,Cxcl2 RNAseq value,FSK,1.0
same,Cyth3 RNAseq value,FSK,30.7
same,Dkc1 RNAseq value,FSK,87.8
same,Epha3 RNAseq value,FSK,0.1
same,Epor RNAseq value,FSK,0.2
same,Fam49a RNAseq value,FSK,0.2
same,Ficd RNAseq value,FSK,89.9
same,Fmc1 RNAseq value,FSK,26.0
same,Fn1 RNAseq value,FSK,852.9
same,Gabre RNAseq value,FSK,0.1
same,Gars RNAseq value,FSK,439.6
same,Ggt5 RNAseq value,FSK,0.3
same,Gnl3 RNAseq value,FSK,31.0
same,Gnmt RNAseq value,FSK,0.4
same,Gzmm RNAseq value,FSK,0.4
same,Hmcn1 RNAseq value,FSK,0.0
same,Hmga2 RNAseq value,FSK,0.5
same,Hnrnpa1 RNAseq value,FSK,34.2
same,Hnrpdl RNAseq value,FSK,160.1
same,Hs3st2 RNAseq value,FSK,0.6
same,Hspa4 RNAseq value,FSK,138.6
same,Hspd1 RNAseq value,FSK,47.6
same,Icam2 RNAseq value,FSK,0.2
same,Il13ra1 RNAseq value,FSK,0.3
same,Il28ra RNAseq value,FSK,10.0
same,Kcnb1 RNAseq value,FSK,48.7
same,Kcnj13 RNAseq value,FSK,1.4
same,Kdm1b RNAseq value,FSK,9.1
same,Kif9 RNAseq value,FSK,0.3
same,LOC683722 RNAseq value,FSK,12.3
same,LOC686295 RNAseq value,FSK,4.9
same,LOC689959 RNAseq value,FSK,17.9
same,Lrfn5 RNAseq value,FSK,0.1
same,Map3k4 RNAseq value,FSK,25.4
same,Mef2d RNAseq value,FSK,146.0
same,Megf10 RNAseq value,FSK,0.1
same,Msn RNAseq value,FSK,1.2
same,Myof RNAseq value,FSK,0.0
same,Nckap1l RNAseq value,FSK,0.2
same,Nkx2-2 RNAseq value,FSK,192.1
same,Nolc1 RNAseq value,FSK,183.8
same,Notch4 RNAseq value,FSK,0.9
same,Ormdl3 RNAseq value,FSK,286.8
same,Otop3 RNAseq value,FSK,0.1
same,Pabpc6 RNAseq value,FSK,0.1
same,Pde3b RNAseq value,FSK,103.8
same,Pde4dip RNAseq value,FSK,61.8
same,Pdrg1 RNAseq value,FSK,43.4
same,Plcb2 RNAseq value,FSK,0.1
same,RGD1309079 RNAseq value,FSK,1.1
same,RGD1311084 RNAseq value,FSK,0.2
same,Rab3gap2 RNAseq value,FSK,53.1
same,Rab11fip1 RNAseq value,FSK,11.0
same,Rap2a RNAseq value,FSK,13.5
same,Rho RNAseq value,FSK,0.2
same,Rpl7a RNAseq value,FSK,0.4
same,Rpl17 RNAseq value,FSK,117.5
same,Rrs1 RNAseq value,FSK,38.4
same,Sgce RNAseq value,FSK,0.2
same,Smad1 RNAseq value,FSK,48.4
same,Smad3 RNAseq value,FSK,5.7
same,Snapc1 RNAseq value,FSK,4.6
same,Sncaip RNAseq value,FSK,7.4
same,Spon2 RNAseq value,FSK,0.7
same,Srp54 RNAseq value,FSK,40.0
same,Stard8 RNAseq value,FSK,0.3
same,Syp RNAseq value,FSK,744.1
same,T2 RNAseq value,FSK,0.2
same,Taf1a RNAseq value,FSK,9.0
same,Tex38 RNAseq value,FSK,0.5
same,Tmem114 RNAseq value,FSK,0.2
same,Tomm20 RNAseq value,FSK,90.1
same,Tpp2 RNAseq value,FSK,12.0
same,Twistnb RNAseq value,FSK,8.1
same,Usp9x RNAseq value,FSK,56.0
same,Vps37b RNAseq value,FSK,52.0
same,Zfp830 RNAseq value,FSK,20.4
same,Zfp385d RNAseq value,FSK,0.2
same,Accsl Fold,FSK/control,2.0
same,Acpt Fold,FSK/control,2.0
same,Acsl4 Fold,FSK/control,2.0
same,Agt Fold,FSK/control,2.0
same,Ahi1 Fold,FSK/control,2.0
same,Bhlha15 Fold,FSK/control,2.0
same,Btg3 Fold,FSK/control,2.0
same,Bysl Fold,FSK/control,2.0
same,Canx Fold,FSK/control,2.0
same,Ccni Fold,FSK/control,2.0
same,Chd1 Fold,FSK/control,2.0
same,Chrne Fold,FSK/control,2.0
same,Ctf1 Fold,FSK/control,2.0
same,Cxcl2 Fold,FSK/control,2.0
same,Cyth3 Fold,FSK/control,2.0
same,Dkc1 Fold,FSK/control,2.0
same,Epha3 Fold,FSK/control,2.0
same,Epor Fold,FSK/control,2.0
same,Fam49a Fold,FSK/control,2.0
same,Ficd Fold,FSK/control,2.0
same,Fmc1 Fold,FSK/control,2.0
same,Fn1 Fold,FSK/control,2.0
same,Gabre Fold,FSK/control,2.0
same,Gars Fold,FSK/control,2.0
same,Ggt5 Fold,FSK/control,2.0
same,Gnl3 Fold,FSK/control,2.0
same,Gnmt Fold,FSK/control,2.0
same,Gzmm Fold,FSK/control,2.0
same,Hmcn1 Fold,FSK/control,2.0
same,Hmga2 Fold,FSK/control,2.0
same,Hnrnpa1 Fold,FSK/control,2.0
same,Hnrpdl Fold,FSK/control,2.0
same,Hs3st2 Fold,FSK/control,2.0
same,Hspa4 Fold,FSK/control,2.0
same,Hspd1 Fold,FSK/control,2.0
same,Icam2 Fold,FSK/control,2.0
same,Il13ra1 Fold,FSK/control,2.0
same,Il28ra Fold,FSK/control,2.0
same,Kcnb1 Fold,FSK/control,2.0
same,Kcnj13 Fold,FSK/control,2.0
same,Kdm1b Fold,FSK/control,2.0
same,Kif9 Fold,FSK/control,2.0
same,LOC683722 Fold,FSK/control,2.0
same,LOC686295 Fold,FSK/control,2.0
same,LOC689959 Fold,FSK/control,2.0
same,Lrfn5 Fold,FSK/control,2.0
same,Map3k4 Fold,FSK/control,2.0
same,Mef2d Fold,FSK/control,2.0
same,Megf10 Fold,FSK/control,2.0
same,Msn Fold,FSK/control,2.0
same,Myof Fold,FSK/control,2.0
same,Nckap1l Fold,FSK/control,2.0
same,Nkx2-2 Fold,FSK/control,2.0
same,Nolc1 Fold,FSK/control,2.0
same,Notch4 Fold,FSK/control,2.0
same,Ormdl3 Fold,FSK/control,2.0
same,Otop3 Fold,FSK/control,2.0
same,Pabpc6 Fold,FSK/control,2.0
same,Pde3b Fold,FSK/control,2.0
same,Pde4dip Fold,FSK/control,2.0
same,Pdrg1 Fold,FSK/control,2.0
same,Plcb2 Fold,FSK/control,2.0
same,RGD1309079 Fold,FSK/control,2.0
same,RGD1311084 Fold,FSK/control,2.0
same,Rab3gap2 Fold,FSK/control,2.0
same,Rab11fip1 Fold,FSK/control,2.0
same,Rap2a Fold,FSK/control,2.0
same,Rho Fold,FSK/control,2.0
same,Rpl7a Fold,FSK/control,2.0
same,Rpl17 Fold,FSK/control,2.0
same,Rrs1 Fold,FSK/control,2.0
same,Sgce Fold,FSK/control,2.0
same,Smad1 Fold,FSK/control,2.0
same,Smad3 Fold,FSK/control,2.0
same,Snapc1 Fold,FSK/control,2.0
same,Sncaip Fold,FSK/control,2.0
same,Spon2 Fold,FSK/control,2.0
same,Srp54 Fold,FSK/control,2.0
same,Stard8 Fold,FSK/control,2.0
same,Syp Fold,FSK/control,2.0
same,T2 Fold,FSK/control,2.0
same,Taf1a Fold,FSK/control,2.0
same,Tex38 Fold,FSK/control,2.0
same,Tmem114 Fold,FSK/control,2.0
same,Tomm20 Fold,FSK/control,2.0
same,Tpp2 Fold,FSK/control,2.0
same,Twistnb Fold,FSK/control,2.0
same,Usp9x Fold,FSK/control,2.0
same,Vps37b Fold,FSK/control,2.0
same,Zfp830 Fold,FSK/control,2.0
same,Zfp385d Fold,FSK/control,2.0
